8 molecules from PubChem BioAssay (NCI) can be followed below.

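Values below derive from 48-hour exposures of cells grown in 96-well plates, with endpoints linearly interpolated between the two concentrations bracketing the appropriate inhibition level. GI50: concentration for 50% inhibition of growth. At the TGI there is no net growth.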 Bounds are passed on as bounds.

Test systems include A549 NSCLC; MDA-MB-231 breast; HCT-116 colon; RXF 393 renal; HS 578T breast; CAKI-1 renal; K-562 leukemia; SNB-75 CNS; SF-268 CNS; SR leukemia.
What all share (experiment): DTP human tumour cell line panel, 48 h

On to `C[C@H](c1ccc(Cl)cc1[N+](=O)[O-])N1C(=O)c2cc(I)ccc2NC(=O)[C@H]1c1ccc(Cl)cc1`, for which the GI50 in the experiment on A549 NSCLC was 6.01 µM; in the experiment with MDA-MB-231 breast it was 3.46 µM; in the experiment with HCT-116 colon it was 5.78 µM; with RXF 393 renal, 9.07 µM; in the experiment on HS 578T breast, 6.5 µM; with CAKI-1 renal it was 4.2 µM. Moreover, the GI50 with K-562 leukemia was 77 µM; in the experiment with SNB-75 CNS, above 100 µM; with SF-268 CNS, above 100 µM; in the experiment with SR leukemia, 28 µM. Further, the TGI in the experiment with A549 NSCLC, in the experiment with MDA-MB-231 breast, with HCT-116 colon, in the experiment with RXF 393 renal, with HS 578T breast and in the experiment with CAKI-1 renal was above 100 µM in each case. Besides, the TGI with K-562 leukemia, with SNB-75 CNS, in the experiment on SF-268 CNS and in the experiment with SR leukemia was above 100 µM throughout.

With `CN1CCN(Cc2ccc(NC(=O)c3cncc(C#Cc4ncc5ccccn45)c3)cc2C(F)(F)F)CC1`, the GI50 is 1.35 µM in the experiment with A549 NSCLC; 0.881 µM with MDA-MB-231 breast; 0.674 µM in the experiment on HCT-116 colon; 1.09 µM in the experiment with RXF 393 renal; 0.688 µM in the experiment on HS 578T breast; 0.913 µM with CAKI-1 renal. The concentration for 50% growth inhibition (GI50) in the experiment on K-562 leukemia was 0.0025 µM; with SNB-75 CNS it was 2.73 µM; in the experiment on SF-268 CNS, 2.06 µM; in the experiment with SR leukemia, 0.511 µM. In addition, the concentration for total growth inhibition (TGI) in the experiment with A549 NSCLC came to 5.48 µM; with MDA-MB-231 breast it was 5.92 µM; with HCT-116 colon it was 3.06 µM; in the experiment with RXF 393 renal it was 3.73 µM; in the experiment on HS 578T breast, 3.61 µM; in the experiment on CAKI-1 renal, 3.99 µM. For the same molecule, the TGI was determined as 2.91 µM in the experiment on K-562 leukemia, 5.77 µM with SNB-75 CNS, 7.22 µM with SF-268 CNS and 1.41 µM with SR leukemia.

For the molecule `CC1CC2(C)CC(=O)C1C1C(=O)N(CCN3CCOCC3)C(=O)C12` (centres undefined), the GI50 in the experiment with A549 NSCLC, in the experiment on MDA-MB-231 breast, in the experiment with HCT-116 colon, with RXF 393 renal, with HS 578T breast and in the experiment with CAKI-1 renal was above 100 µM in each case. Further, the GI50 in the experiment on K-562 leukemia, in the experiment with SNB-75 CNS, in the experiment on SF-268 CNS and in the experiment with SR leukemia was above 100 µM throughout. In addition, the TGI with A549 NSCLC, in the experiment with MDA-MB-231 breast, in the experiment on HCT-116 colon, in the experiment on RXF 393 renal, with HS 578T breast and in the experiment with CAKI-1 renal was above 100 µM throughout. Also, the TGI with K-562 leukemia, in the experiment on SNB-75 CNS, in the experiment with SF-268 CNS and in the experiment with SR leukemia was above 100 µM in each case.

As for `CC(=O)c1cccc(NC(=O)/C(=N\NC(=S)NN)C2C(=O)Nc3ccccc3S2=O)c1` (centres undefined), the TGI in the experiment on A549 NSCLC, in the experiment with MDA-MB-231 breast, with HCT-116 colon, in the experiment with RXF 393 renal, with HS 578T breast and in the experiment on CAKI-1 renal was above 100 µM in each case. Besides, the TGI with K-562 leukemia, in the experiment with SNB-75 CNS, in the experiment with SF-268 CNS and with SR leukemia was above 100 µM in each case.

As to `CCCCCCCCC(=O)NCCN(CCN)C(=O)CCCCCCCC`, the TGI was determined as 29.9 µM in the experiment on A549 NSCLC; 10.3 µM with MDA-MB-231 breast; 8.02 µM with HCT-116 colon; 34.1 µM in the experiment on RXF 393 renal; 24 µM in the experiment on HS 578T breast; 32.9 µM in the experiment with CAKI-1 renal. Moreover, the concentration for total growth inhibition (TGI) was 8.27 µM in the experiment on K-562 leukemia, 15.2 µM in the experiment on SNB-75 CNS, 17.5 µM in the experiment on SF-268 CNS and 13.8 µM in the experiment on SR leukemia.

With `O=C1C=C(OCC=C(Cl)Cl)C(=O)c2ccccc21`, the GI50 in the experiment on A549 NSCLC is 33.2 µM; in the experiment with MDA-MB-231 breast, 3.11 µM; in the experiment on HCT-116 colon, 2.52 µM; in the experiment on RXF 393 renal, 2.46 µM; in the experiment with HS 578T breast it was 2.7 µM; in the experiment with CAKI-1 renal, 23.3 µM. For the same molecule, the results for the GI50 in the experiment on K-562 leukemia, in the experiment with SNB-75 CNS and with SF-268 CNS were 1.01 µM, 7.4 µM and 6.57 µM, respectively. Besides, the concentration for total growth inhibition (TGI) is above 100 µM with A549 NSCLC; 17.7 µM with MDA-MB-231 breast; 7.71 µM in the experiment on HCT-116 colon; 11.1 µM in the experiment on RXF 393 renal; 8.47 µM with HS 578T breast; above 100 µM with CAKI-1 renal. The TGI was above 23 µM in the experiment on K-562 leukemia, 56.9 µM in the experiment on SNB-75 CNS, above 85.7 µM with SF-268 CNS and above 20.4 µM in the experiment on SR leukemia.

`CN1CCN(Cc2ccc(NC(=O)c3[nH]ncc3Nc3cc(OC4CCCC4)ncn3)cc2)CC1`: the GI50 in the experiment on A549 NSCLC is 2.11 µM; in the experiment with MDA-MB-231 breast, 2.64 µM; with HCT-116 colon, 0.755 µM; in the experiment on RXF 393 renal it was 1.36 µM; in the experiment with HS 578T breast, 2.2 µM; in the experiment on CAKI-1 renal, 0.366 µM. Also, the GI50 with K-562 leukemia was 1.64 µM; in the experiment on SNB-75 CNS, 3.53 µM; in the experiment with SF-268 CNS, 4.48 µM; in the experiment with SR leukemia, 1.03 µM. Also, the TGI with A549 NSCLC worked out at 10.5 µM; in the experiment on MDA-MB-231 breast, 7.46 µM; in the experiment with HCT-116 colon, 11 µM; with RXF 393 renal, 2.91 µM; with HS 578T breast, 30 µM; in the experiment on CAKI-1 renal, 9.11 µM. Moreover, the TGI was 13.3 µM in the experiment with K-562 leukemia, 16.4 µM in the experiment with SNB-75 CNS, 19 µM in the experiment with SF-268 CNS and 6.1 µM in the experiment on SR leukemia.

Turning to `NCCNc1ncnc2ccc(Cl)cc12`, the total growth inhibition concentration (TGI) with A549 NSCLC, with MDA-MB-231 breast, in the experiment on HCT-116 colon, in the experiment on RXF 393 renal, with HS 578T breast and in the experiment with CAKI-1 renal was above 100 µM each time. Besides, the TGI in the experiment with K-562 leukemia, with SNB-75 CNS, in the experiment with SF-268 CNS and in the experiment on SR leukemia was above 100 µM each time.
